Reference: paper PMC11226702, “Time-resolved crystallography of boric acid binding to the active site serine of the β-lactamase CTX-M-14 and subsequent 1,2-diol esterification” (Communications Chemistry, 2024)

Experiments:
β-lactamase CTX-M-14 [1] = target: T1, β-lactamase CTX-M-14 (Klebsiella pneumoniae, UniProt A0A0H3H219); test: time-resolved serial crystallography, formed in situ from Ser70-bound boric acid and glycerol (occupancy […]); IC50 is for boric acid combined with glycerol; assay type: biochemical
T1 construct: gene KPHS_p301310

β-lactamase CTX-M-14 [2] = target: T1, β-lactamase CTX-M-14; test: time-resolved serial crystallography (bound to Ser70, occupancy up to […]); IC50 by photometric cefotaxime hydrolysis assay; assay type: biochemical

T1 sequence (A0A0H3H219 entry or part of it): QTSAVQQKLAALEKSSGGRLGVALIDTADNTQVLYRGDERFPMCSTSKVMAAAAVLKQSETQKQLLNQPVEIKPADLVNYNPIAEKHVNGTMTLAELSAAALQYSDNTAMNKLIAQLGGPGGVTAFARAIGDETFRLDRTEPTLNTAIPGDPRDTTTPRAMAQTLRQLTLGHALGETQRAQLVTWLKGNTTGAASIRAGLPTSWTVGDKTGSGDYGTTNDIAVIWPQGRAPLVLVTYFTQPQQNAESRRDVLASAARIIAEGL

SMILES | IC50 (β-lactamase CTX-M-14 [1]) [mM] | IC50 (β-lactamase CTX-M-14 [2]) [mM]
OCC1COB(O)O1 (racemic) [GBE, glycerol boric acid diester] | 3.1 ± 0.4 | 
OB(O)O [BAB, boric acid] |  | 2.9 ± 0.4
